# Assay results reported in US20110319416A1, “Subunit Selective NMDA Receptor Antagonists For The Treatment Of Neurological Conditions” (EMORY UNIVERSITY, priority 2009, published 2011).
# Like-named read-outs stand apart in the source and are kept apart here. Marks after values point to notes of the source that are not given here.
# What was measured:
# NR1/NR2D [1] = molecular target: T1, NR1/NR2D (Rattus norvegicus, UniProt Q62645); test: Two electrode voltage clamp, Xenopus oocytes expressing recombinant NR1/NR2D; format: cell-based
# Method: (§1) Quality of synthesized cRNA was assessed by gel electrophoresis, and quantity was estimated by spectroscopy and gel electrophoresis. Stage V and VI oocytes were surgically removed from the ovaries of large, well-fed and healthy Xenopus laevis anesthetized with 3-amino-benzoic acid ethyl ester (3 gm/l) as previously described. Clusters of isolated oocytes were incubated with 292 U/ml Worthington (Freehold, N.J.) type IV collagenase or 1.3 mg/ml collagenase (Life Technologies, Gaithersburg, MD; 17018-029) for 2 hr in Ca^2+-free solution comprised of (in mM) 115 NaCl, 2.5 KCl, and 10 HEPES, pH 7.5, with slow agitation to remove the follicular cell layer. Oocytes were then washed extensively in the same solution supplemented with 1.8 mM CaCl2 and maintained in Barth's solution comprised of (in mM): 88 NaCl, 1 KCl, 2.4 NaHCO3, 10 HEPES, 0.82 MgSO4, 0.33 Ca(NO3)2, and 0.91 CaCl2 and supplemented with 100 μg/m1 gentamycin, 10 μg/ml streptomycin, and 10 μg/ml penicillin. Oocytes were manually defolliculated and injected within 24 hrs of isolation with 3-5 ng of NR1 subunit cRNA and 7-10 ng of NR2 cRNA subunit in a 50 nl volume, or 5-10 ng of AMPA or kainate receptor cRNAs in a 50 nl volume, and incubated in Barth's solution at 18° C. for 1-7 d. Glass injection pipettes had tip sizes ranging from 10-20 microns, and were backfilled with mineral oil.
# (§2) Two electrode voltage-clamp recordings were made 2-7 days post-injection as previously described. Oocytes were placed in a dual-track plexi-glass recording chamber with a single perfusion line that splits in a Y-configuration to perfuse two oocytes. Dual recordings were made at room temperature (23° C.) using two Warner OC725B two-electrode voltage clamp amplifiers, arranged as recommended by the manufacturer. Glass microelectrodes (1-10 Megaohms) were filled with 300 mM KCl (voltage electrode) or 3 M KCl (current electrode). The bath clamps communicated across silver chloride wires placed into each side of the recording chamber, both of which were assumed to be at a reference potential of 0 mV. Oocytes were perfused with a solution comprised of (in mM) 90 NaCl, 1 KCl, 10 HEPES, and 0.5 BaCl2; pH was adjusted by addition of 1-3 M NaOH of HC1 to 7.4. Oocytes were recorded under voltage clamp at −40 mV. […] In some experiments, 10 μM EDTA was obtained by adding a 1:1000 dilution of 10 mM EDTA, in order to chelate contaminant divalent ions such as Zn^2+. […] Concentration effect curves consisting of 4 to 8 concentrations were obtained in this manner. The baseline leak current at −40 mV was measured before and after recording, and the full recording linearly corrected for any change in leak current. […] Each experiment consisted of recordings from 3 to 10 oocytes obtained from a single frog. Results from multiple experiments were pooled, and the average percent responses at antagonist concentrations were fitted by the equation,
# (§3) Percent Response=(100−minimum)/(1+([conc]/IC50)nH)+minimum
# NR1/NR2D [2] = molecular target: T1, NR1/NR2D; test: Ca2+ fluorescence screening assay in NR1/NR2D expressing BHK cells (96 well); format: cell-based; design: expressed in transfected cells; host or cells: BHK-21 cells; NR1 induced by doxycyclin (Tet-On), NR2D constitutive
# NR2D [3] = molecular target: T2, NR2D (Homo sapiens, UniProt O15399+Q05586)
# NR2B [4] = molecular target: T3, NR2B (Homo sapiens, UniProt Q05586+Q13224)
# NR2A = NR2A (Homo sapiens, UniProt Q05586+Q12879); conditions: cited from earlier work; for IC50: read-out: 2A (μM) IC50, non-competitive and uncompetitive antagonists
# NR2C = NR2C (Homo sapiens, UniProt Q05586+Q14957)
# NR2B [5] = molecular target: T3, NR2B; test: Literature functional antagonist potency at NR2B (Table 1)
# NR2D [6] = molecular target: T2, NR2D; test: Literature functional antagonist potency at NR2D (Table 1); format: cell-based
# NR1/NR2C [7] = molecular target: NR1/NR2C (Rattus norvegicus, UniProt P35439+Q00961); test: Two electrode voltage clamp, Xenopus oocytes expressing recombinant NR1/NR2C; format: cell-based
# Method: as §1, §2, §3
# GluR1 = GluR1 (Rattus norvegicus, UniProt P19490); test: Two electrode voltage clamp, Xenopus oocytes expressing GluR1; format: cell-based; conditions: for remaining activity at 100 µM: read-out: GluR1 percent effect at the maximum tested concentration
# Method: as §1, §2, §3
# NR1/NR2D [8] = molecular target: NR1/NR2D (Rattus norvegicus, UniProt P35439+Q62645); test: Two electrode voltage clamp, Xenopus oocytes expressing recombinant NR1/NR2D; format: cell-based
# Method: as §1, §2, §3
# NR1/NR2B = NR1/NR2B (Rattus norvegicus, UniProt P35439+Q00960); test: Two electrode voltage clamp, Xenopus oocytes expressing recombinant NR1/NR2B; format: cell-based; conditions: for remaining activity at 100 µM: read-out: 2B percent effect at the maximum tested concentration
# Method: as §1, §2, §3
# NR1/NR2A = NR1/NR2A (Rattus norvegicus, UniProt P35439+Q00959); test: Two electrode voltage clamp, Xenopus oocytes expressing recombinant NR1/NR2A; format: cell-based; conditions: for remaining activity at 100 µM: read-out: 2A percent effect at the maximum tested concentration
# Method: as §1, §2, §3
# NR1/NR2C [9] = molecular target: NR1/NR2C (Rattus norvegicus, UniProt Q00961); test: Two electrode voltage clamp, Xenopus oocytes expressing recombinant NR1/NR2C; format: cell-based; conditions: logistic fit, minimum forced to 0; read-out: 2C IC50
# Method: as §1, §2, §3
# [10] = 10 μM test compound, 100 μM glutamate/1 mM glycine
# [11] = read-out: 2D (μM) IC50; non-competitive and uncompetitive antagonists; cited from earlier work
# [12] = read-out: 2C (μM) IC50; non-competitive and uncompetitive antagonists; cited from earlier work
# [13] = logistic fit, minimum forced to 0, read-out: 2C IC50
# [14] = logistic fit, minimum forced to 0, read-out: 2D IC50
# Chain of NR2C (Q14957 20-1233, other chains not shown): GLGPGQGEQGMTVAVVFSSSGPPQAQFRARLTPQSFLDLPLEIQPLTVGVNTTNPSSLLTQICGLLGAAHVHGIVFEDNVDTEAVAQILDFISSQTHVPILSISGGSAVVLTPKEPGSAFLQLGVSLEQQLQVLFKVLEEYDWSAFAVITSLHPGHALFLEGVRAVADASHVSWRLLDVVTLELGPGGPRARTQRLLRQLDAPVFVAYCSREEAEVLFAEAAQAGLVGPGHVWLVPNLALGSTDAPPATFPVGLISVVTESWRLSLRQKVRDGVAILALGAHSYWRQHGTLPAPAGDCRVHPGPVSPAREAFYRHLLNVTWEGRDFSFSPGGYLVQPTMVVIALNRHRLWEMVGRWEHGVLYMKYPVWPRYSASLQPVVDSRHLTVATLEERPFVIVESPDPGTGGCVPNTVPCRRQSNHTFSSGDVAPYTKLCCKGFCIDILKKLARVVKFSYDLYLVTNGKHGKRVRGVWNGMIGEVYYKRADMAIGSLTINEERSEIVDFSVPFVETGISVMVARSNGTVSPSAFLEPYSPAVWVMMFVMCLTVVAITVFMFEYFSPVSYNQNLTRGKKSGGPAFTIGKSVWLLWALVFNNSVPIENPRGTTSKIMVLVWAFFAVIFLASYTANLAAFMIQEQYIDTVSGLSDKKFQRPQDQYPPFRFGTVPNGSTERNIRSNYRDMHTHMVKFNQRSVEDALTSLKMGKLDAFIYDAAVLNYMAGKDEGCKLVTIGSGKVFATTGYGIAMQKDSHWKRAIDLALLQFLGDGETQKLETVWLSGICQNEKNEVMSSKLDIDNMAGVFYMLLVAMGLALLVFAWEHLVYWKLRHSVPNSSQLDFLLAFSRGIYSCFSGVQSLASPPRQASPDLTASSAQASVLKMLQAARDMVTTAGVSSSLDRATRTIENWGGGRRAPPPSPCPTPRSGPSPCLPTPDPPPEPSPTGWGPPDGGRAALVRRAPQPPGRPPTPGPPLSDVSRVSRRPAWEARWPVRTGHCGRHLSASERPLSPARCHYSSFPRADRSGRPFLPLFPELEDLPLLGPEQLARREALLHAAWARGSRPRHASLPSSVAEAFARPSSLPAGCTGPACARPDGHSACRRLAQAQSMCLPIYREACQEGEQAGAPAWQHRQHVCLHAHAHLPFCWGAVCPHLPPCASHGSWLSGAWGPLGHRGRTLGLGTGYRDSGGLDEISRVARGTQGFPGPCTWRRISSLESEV
# Chain of NR1/NR2A (Q00959 23-1464, other chains not shown): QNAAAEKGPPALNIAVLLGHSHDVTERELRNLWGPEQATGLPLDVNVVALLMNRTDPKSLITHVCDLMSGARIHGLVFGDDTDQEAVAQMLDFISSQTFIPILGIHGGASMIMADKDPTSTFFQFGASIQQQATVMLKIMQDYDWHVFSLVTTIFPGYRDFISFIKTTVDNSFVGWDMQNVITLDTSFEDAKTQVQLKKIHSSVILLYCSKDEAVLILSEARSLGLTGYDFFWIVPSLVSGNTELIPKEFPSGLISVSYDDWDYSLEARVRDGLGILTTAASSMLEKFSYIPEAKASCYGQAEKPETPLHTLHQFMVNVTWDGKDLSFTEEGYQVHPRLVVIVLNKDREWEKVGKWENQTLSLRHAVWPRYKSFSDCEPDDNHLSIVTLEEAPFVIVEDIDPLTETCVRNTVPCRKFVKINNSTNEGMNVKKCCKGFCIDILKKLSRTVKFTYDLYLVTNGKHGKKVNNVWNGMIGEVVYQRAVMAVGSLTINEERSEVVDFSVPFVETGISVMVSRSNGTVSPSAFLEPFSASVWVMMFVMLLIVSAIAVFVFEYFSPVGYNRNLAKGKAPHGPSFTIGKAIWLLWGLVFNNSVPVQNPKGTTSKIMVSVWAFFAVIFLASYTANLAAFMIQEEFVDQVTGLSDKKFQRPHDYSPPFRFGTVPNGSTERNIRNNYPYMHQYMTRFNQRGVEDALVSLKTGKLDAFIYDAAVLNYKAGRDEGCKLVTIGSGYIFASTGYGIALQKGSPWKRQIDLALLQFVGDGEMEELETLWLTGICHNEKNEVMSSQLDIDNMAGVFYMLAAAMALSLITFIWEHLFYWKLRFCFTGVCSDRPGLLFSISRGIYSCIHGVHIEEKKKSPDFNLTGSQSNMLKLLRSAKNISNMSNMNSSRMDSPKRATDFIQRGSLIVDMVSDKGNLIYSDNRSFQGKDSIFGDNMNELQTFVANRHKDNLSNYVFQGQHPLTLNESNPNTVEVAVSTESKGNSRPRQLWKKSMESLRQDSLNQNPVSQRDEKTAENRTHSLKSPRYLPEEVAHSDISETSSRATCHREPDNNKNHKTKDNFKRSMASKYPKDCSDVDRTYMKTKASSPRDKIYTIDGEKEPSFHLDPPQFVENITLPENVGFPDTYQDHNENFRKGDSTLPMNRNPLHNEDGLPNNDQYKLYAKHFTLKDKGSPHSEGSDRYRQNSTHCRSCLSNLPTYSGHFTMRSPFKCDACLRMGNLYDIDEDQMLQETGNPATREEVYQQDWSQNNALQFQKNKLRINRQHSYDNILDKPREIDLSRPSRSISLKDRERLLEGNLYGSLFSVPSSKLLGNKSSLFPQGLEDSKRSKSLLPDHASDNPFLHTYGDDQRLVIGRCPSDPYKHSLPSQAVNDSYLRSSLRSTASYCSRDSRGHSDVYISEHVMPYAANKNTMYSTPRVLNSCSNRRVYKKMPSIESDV
# T3 sequence (Q13224 27-1484, other chains not shown): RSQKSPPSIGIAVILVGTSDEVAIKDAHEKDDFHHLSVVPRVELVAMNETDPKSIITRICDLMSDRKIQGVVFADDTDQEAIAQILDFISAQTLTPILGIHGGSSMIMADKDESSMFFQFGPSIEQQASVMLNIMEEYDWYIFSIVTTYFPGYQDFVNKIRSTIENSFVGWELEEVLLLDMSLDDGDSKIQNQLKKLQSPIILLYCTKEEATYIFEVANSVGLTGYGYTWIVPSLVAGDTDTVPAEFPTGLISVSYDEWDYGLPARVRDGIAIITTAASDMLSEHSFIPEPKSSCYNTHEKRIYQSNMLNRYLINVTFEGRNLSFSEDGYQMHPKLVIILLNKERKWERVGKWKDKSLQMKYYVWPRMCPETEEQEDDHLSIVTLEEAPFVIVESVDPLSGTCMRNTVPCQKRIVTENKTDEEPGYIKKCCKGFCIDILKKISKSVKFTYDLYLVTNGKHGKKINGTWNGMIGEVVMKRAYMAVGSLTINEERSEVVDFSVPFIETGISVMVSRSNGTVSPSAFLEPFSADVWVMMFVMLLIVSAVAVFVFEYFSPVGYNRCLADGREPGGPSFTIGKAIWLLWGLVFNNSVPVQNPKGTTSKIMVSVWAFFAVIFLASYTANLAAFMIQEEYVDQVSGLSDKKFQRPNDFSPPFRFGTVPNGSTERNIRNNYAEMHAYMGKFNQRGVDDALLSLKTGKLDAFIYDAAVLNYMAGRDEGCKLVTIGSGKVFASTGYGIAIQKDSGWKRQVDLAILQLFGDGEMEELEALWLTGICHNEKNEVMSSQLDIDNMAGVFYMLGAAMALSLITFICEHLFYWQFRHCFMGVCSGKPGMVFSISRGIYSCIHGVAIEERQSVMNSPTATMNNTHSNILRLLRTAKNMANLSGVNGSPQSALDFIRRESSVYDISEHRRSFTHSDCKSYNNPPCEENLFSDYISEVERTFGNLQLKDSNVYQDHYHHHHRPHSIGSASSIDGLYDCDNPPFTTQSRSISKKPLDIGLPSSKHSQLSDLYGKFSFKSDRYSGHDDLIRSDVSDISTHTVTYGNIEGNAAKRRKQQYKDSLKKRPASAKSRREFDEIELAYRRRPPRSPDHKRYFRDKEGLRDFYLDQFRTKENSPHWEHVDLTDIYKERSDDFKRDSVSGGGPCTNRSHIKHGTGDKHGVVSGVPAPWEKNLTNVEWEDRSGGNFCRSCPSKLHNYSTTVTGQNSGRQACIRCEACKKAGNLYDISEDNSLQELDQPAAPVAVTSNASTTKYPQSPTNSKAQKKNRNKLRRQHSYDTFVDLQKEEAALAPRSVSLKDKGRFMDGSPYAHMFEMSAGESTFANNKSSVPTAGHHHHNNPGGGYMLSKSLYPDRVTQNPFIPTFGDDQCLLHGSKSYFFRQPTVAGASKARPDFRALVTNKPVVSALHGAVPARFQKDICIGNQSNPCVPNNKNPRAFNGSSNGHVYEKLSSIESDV
# Chain of GluR1 (P19490 19-907): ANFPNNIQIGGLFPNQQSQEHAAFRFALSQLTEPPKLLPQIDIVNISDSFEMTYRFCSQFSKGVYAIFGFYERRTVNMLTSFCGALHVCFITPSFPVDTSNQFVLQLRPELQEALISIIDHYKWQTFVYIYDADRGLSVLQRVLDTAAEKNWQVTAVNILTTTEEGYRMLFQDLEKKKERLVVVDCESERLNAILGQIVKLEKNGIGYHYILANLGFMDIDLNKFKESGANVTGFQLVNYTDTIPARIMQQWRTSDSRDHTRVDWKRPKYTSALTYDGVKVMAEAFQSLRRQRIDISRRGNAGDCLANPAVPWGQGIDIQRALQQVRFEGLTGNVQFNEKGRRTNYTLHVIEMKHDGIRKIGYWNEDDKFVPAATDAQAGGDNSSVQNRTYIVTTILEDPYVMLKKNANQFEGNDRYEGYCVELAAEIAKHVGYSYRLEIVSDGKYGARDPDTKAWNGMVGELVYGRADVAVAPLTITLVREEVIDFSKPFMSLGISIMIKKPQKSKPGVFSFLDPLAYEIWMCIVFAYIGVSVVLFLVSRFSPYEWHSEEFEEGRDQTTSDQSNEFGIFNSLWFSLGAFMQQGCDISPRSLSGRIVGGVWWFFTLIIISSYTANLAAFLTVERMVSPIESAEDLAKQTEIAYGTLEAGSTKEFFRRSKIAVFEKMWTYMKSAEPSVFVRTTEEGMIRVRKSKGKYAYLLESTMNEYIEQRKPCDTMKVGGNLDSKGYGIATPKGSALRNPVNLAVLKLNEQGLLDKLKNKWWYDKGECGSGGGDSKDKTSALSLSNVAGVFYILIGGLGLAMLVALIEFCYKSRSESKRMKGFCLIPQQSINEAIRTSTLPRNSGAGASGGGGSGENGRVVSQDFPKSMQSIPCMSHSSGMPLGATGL
compound,measurement,setting,value
"N[C@@H](CCC(=O)O)C(=O)O [glutamate, reference compound]",EC50,"NR1/NR2D [1]; submicromolar, method not stated, read-out: EC50 for activation of NR2D-containing receptors",< 0.5 µM
(+)MK-801,identification in test screen of NR1/NR2D expressing BHK cells,NR1/NR2D [2]; [10],successfully identified
COc1ccc2c(c1)[C@]13CCCC[C@@H]1[C@H](C2)N(C)CC3 [Dextromethorphan],IC50,NR2D [3]; [11],1.5 µM
same,IC50,NR2B [4]; read-out: 2B (μM) IC50; non-competitive and uncompetitive antagonists; cited from earlier work,3.7 µM
same,IC50,NR2A,11.3 µM
same,IC50,NR2C; [12],1.1 µM
same,2A/2B (ratio of IC50),NR2B [5]; IC50 ratio,3.1
same,2A/2D (ratio of IC50),NR2D [6]; IC50 ratio,7.5
C[C@]12N[C@H](Cc3ccccc31)c1ccccc12 [(—)MK-801],IC50,NR2D [3]; non-competitive and uncompetitive antagonists; read-out: 2D (μM) IC50; cited from earlier work,0.17 µM
same,identification in test screen of NR1/NR2D expressing BHK cells,NR1/NR2D [2]; [10],successfully identified
same,IC50,NR2C; non-competitive and uncompetitive antagonists; read-out: 2C (μM) IC50; cited from earlier work,0.04 µM
CC(C)N(C(=O)Oc1ccc(C(=O)Oc2ccc3cccc(N)c3c2)cc1)C(C)C [1063-13],IC50,NR1/NR2C [7],385 µM
same,remaining activity at 100 µM,GluR1,117%
same,IC50,NR1/NR2D [8],55 µM
same,remaining activity at 100 µM,NR1/NR2B,84%
same,remaining activity at 100 µM,NR1/NR2A,89%
O=C(O)[C@H]1CN(CCCP(=O)(O)O)CCN1 [(R)CPP],potency estimated from few doses,NR2D [3]; Ki estimated from functionally determined IC50 at a single agonist concentration; read-out: 2D (μM) Ki**; cited from earlier work,2 µM
same,potency estimated from few doses,NR2B [4]; Ki estimated from functionally determined IC50 at a single agonist concentration; read-out: 2B (μM) Ki**; cited from earlier work,0.27 µM
same,potency estimated from few doses,"NR2A; Ki estimated from functionally determined IC50 at a single agonist concentration, read-out: 2A (μM) Ki**",0.04 µM
same,potency estimated from few doses,NR2C; Ki estimated from functionally determined IC50 at a single agonist concentration; read-out: 2C (μM) Ki**; cited from earlier work,0.63 µM
same,2A/2B (ratio of Ki**),NR2B [5]; functional Ki ratio,0.2**
same,2A/2D (ratio of Ki**),NR2D [6]; functional Ki ratio,0.02**
C=CCN(CC=C)C(=O)Oc1ccc(C(=O)Nc2cccc3ccccc23)cc1 [1063-5],IC50,NR1/NR2C [7],42 µM
same,remaining activity at 100 µM,GluR1,103%
same,IC50,NR1/NR2D [8],28 µM
same,IC50,NR1/NR2B,719 µM
same,remaining activity at 100 µM,NR1/NR2A,104%
COc1ccc(C2CC(c3c(-c4ccccc4)c4cc(Br)ccc4[nH]c3=O)=NN2C(=O)CCC(=O)O)cc1 (stereo not drawn) [compound 1128],2D percent response at the maximum tested concentration,NR1/NR2D [1]; at 100 μM,90% at 100 μM
CCN(CC)C(=O)Oc1ccc(C(=O)Nc2cc(C(=O)OC)cc3c(C)c[nH]c23)cc1 [1063-35],remaining activity at 100 µM,NR1/NR2C [7]; read-out: 2C percent effect at the maximum tested concentration,77%
same,remaining activity at 100 µM,GluR1,97%
same,remaining activity at 100 µM,NR1/NR2D [8]; read-out: 2D percent effect at the maximum tested concentration,80%
same,IC50,NR1/NR2B,238 µM
same,IC50,NR1/NR2A,177 µM
O=c1[nH]c2ccc(Cl)cc2c(-c2ccccc2)c1C1=NNC(c2ccc(Br)cc2)C1 (stereo not drawn) [compound 1249],2D percent response at the maximum tested concentration,NR1/NR2D [1],79% at 30 μM
CCc1cccc(N(C)C(N)=Nc2cccc3ccccc23)c1 [CNS-1102],identification in test screen of NR1/NR2D expressing BHK cells,NR1/NR2D [2]; [10],successfully identified
CCN(CC)C(=O)Oc1ccc(C(=O)Nc2cccc3cc[nH]c23)cc1 [1063-20],IC50,NR1/NR2C [7],5 µM
same,remaining activity at 100 µM,GluR1,92%
same,IC50,NR1/NR2D [8],3 µM
same,IC50,NR1/NR2B,933 µM
same,IC50,NR1/NR2A,2420 µM
C=CCN1CCC2(C)c3cc(O)ccc3CC1C2C (stereo not drawn) [N-allylnormetazoline],identification in test screen of NR1/NR2D expressing BHK cells,NR1/NR2D [2]; [10],successfully identified
CCN(CC)C(=S)Oc1ccc(C(=O)Nc2cccc3cc[nH]c23)cc1 [1063-21],IC50,NR1/NR2C [7]; [13],15 µM
same,remaining activity at 100 µM,GluR1; at 100 μM,102%
same,IC50,NR1/NR2D [8]; [14],4 µM
same,remaining activity at 100 µM,NR1/NR2B; at 100 μM,78%
same,remaining activity at 100 µM,NR1/NR2A; at 100 μM,94%
CCN(CC)C(=O)Oc1ccc(C(=O)Nc2cc(C)cc3c(C)c[nH]c23)cc1 [1063-34],IC50,NR1/NR2C [7],102 µM
same,remaining activity at 100 µM,GluR1,85%
same,IC50,NR1/NR2D [8],93 µM
same,IC50,NR1/NR2B,365 µM
same,remaining activity at 100 µM,NR1/NR2A,71%
CC(=O)N1N=C(c2c(-c3ccccc3)c3cc(C)ccc3[nH]c2=O)CC1c1ccc(Br)cc1 (stereo not drawn) [compound 1250],2D percent response at the maximum tested concentration,NR1/NR2D [1],81% at 30 μM
CC12CC3CC(C)(C1)CC(N)(C3)C2 [memantine],identification in test screen of NR1/NR2D expressing BHK cells,NR1/NR2D [2],successfully identified
N=C(N)c1ccc(OCCCCCOc2ccc(C(=N)N)cc2)cc1 [Pentamidine],IC50,NR2B [4]; non-competitive and uncompetitive antagonists; read-out: 2B (μM) IC50; cited from earlier work,1.5 µM
C=CCN1CC[C@]23CCCC[C@H]2[C@H]1Cc1ccc(O)cc13 [levallorphan],identification in test screen of NR1/NR2D expressing BHK cells,NR1/NR2D [2]; [10],successfully identified
CC(C(O)c1ccc(O)cc1)N1CCC(Cc2ccccc2)CC1 (stereo not drawn) [Ifenprodil],IC50,NR2D [3]; [11],76 µM
same,identification in test screen of NR1/NR2D expressing BHK cells,NR1/NR2D [2]; [10],successfully identified
same,IC50,NR2A,40 µM
same,IC50,NR2C; [12],29 µM
CC(C)N(C(=O)Oc1ccc(C(=O)Nc2cccc3ccccc23)cc1)C(C)C [1063-4],IC50,NR1/NR2C [7],8 µM
same,remaining activity at 100 µM,GluR1,130%
same,IC50,NR1/NR2D [8],5 µM
same,IC50,NR1/NR2B,158 µM
same,IC50,NR1/NR2A,874 µM
Cc1ccc2cc(C3CC(c4ccc(Br)cc4)=NN3C(=O)CCC(=O)O)c(=O)[nH]c2c1 (stereo not drawn) [compound 1177],2D percent response at the maximum tested concentration,NR1/NR2D [1]; at 100 μM,80% at 100 μM
CCN(CC)C(=O)Oc1ccc(C(=O)Nc2cccc3ccccc23)cc1 [1063-2],IC50,NR1/NR2C [7],6 µM
same,remaining activity at 100 µM,GluR1,118%
same,IC50,NR1/NR2D [8],4 µM
same,IC50,NR1/NR2B,141 µM
same,IC50,NR1/NR2A,433 µM
"O=C(O)C1NCCN(C(=O)c2ccc3c(ccc4ccccc43)c2)C1C(=O)O (stereo not drawn) [PPDA, 1-(phenanthrene-2-carbonyl)piperazin-2,3, dicarboxylic acid]",selectivity for NR2D over NR2A,NR2D [3]; estimated Ki; cited from earlier work,~5 fold
Cc1ccc2[nH]c(=O)c(C3=NN(C(=O)CCC(=O)O)C(c4ccc(Br)cc4)C3)c(-c3ccccc3)c2c1 (stereo not drawn) [compound 1105],IC50,NR1/NR2C [7]; [13],7 µM
same,IC50,NR1/NR2C [9],7 µM
same,IC50,"GluR1; logistic fit, minimum forced to 0",109 µM
same,IC50,NR1/NR2D [1]; [14],3 µM
same,IC50,NR1/NR2D [8]; [14],3 µM
same,IC50,"NR1/NR2B; logistic fit, minimum forced to 0, read-out: 2B IC50",74 µM
same,IC50,"NR1/NR2A; logistic fit, minimum forced to 0, read-out: 2A IC50",218 µM
